In paper PMC5218480 (PLoS ONE, 2017):

Test system: MV-4-11 cells
Assay: Gene expression microarray analysis (Affymetrix PrimeView) and GSEA
Format: cell-based, human
Design: RFU PODN (11730768_x_at) / Fold change /veh PODN (11730768_x_at) / RFU LINC00158 (11744669_a_at) / Fold change /veh LINC00158 (11744669_a_at) / RFU DUSP10 (11751237_a_at) / Fold change /veh DUSP10 (11751237_a_at) / RFU ID3 (11757404_x_at) / Fold change /veh ID3 (11757404_x_at) / RFU PLEKHG5 (11737974_s_at) / Fold change /veh PLEKHG5 (11737974_s_at) / RFU LRRC4B (11730491_at) / Fold change /veh LRRC4B (11730491_at) / RFU GIMAP4 (11747438_a_at) / Fold change /veh GIMAP4 (11747438_a_at) / RFU KRT8 (11758183_x_at) / Fold change /veh KRT8 (11758183_x_at) / RFU CNN1 (11734310_a_at) / Fold change /veh CNN1 (11734310_a_at) / RFU VPS37D (11726825_at) / Fold change /veh VPS37D (11726825_at) / RFU C10orf10 (11716522_x_at) / Fold change /veh C10orf10 (11716522_x_at) / RFU KIR2DL2 /// KIR2DL4 /// KIR2DL5A /// KIR2DL5B /// KIR2DS1 /// KIR2DS2 /// KIR2DS3 /// KIR2DS4 /// KIR3DL3 /// KIR3DL3 /// KIR3DS1 (11738374_at) / Fold change /veh KIR2DL2 /// KIR2DL4 /// KIR2DL5A /// KIR2DL5B /// KIR2DS1 /// KIR2DS2 /// KIR2DS3 /// KIR2DS4 /// KIR3DL3 /// KIR3DL3 /// KIR3DS1 (11738374_at) / RFU C1QL1 (11718748_at) / Fold change /veh C1QL1 (11718748_at) / RFU TMPRSS4 (11747572_a_at) / Fold change /veh TMPRSS4 (11747572_a_at) / RFU HAMP (11756126_x_at) / Fold change /veh HAMP (11756126_x_at) / RFU RNFT2 (11725882_a_at) / Fold change /veh RNFT2 (11725882_a_at) / RFU NR4A2 (11747474_a_at) / Fold change /veh NR4A2 (11747474_a_at) / RFU ABCC12 (11746883_a_at) / Fold change /veh ABCC12 (11746883_a_at) / RFU TMEM136 (11760407_x_at) / Fold change /veh TMEM136 (11760407_x_at) / RFU CLDN22 /// WWC2 (11732394_at) / Fold change /veh CLDN22 /// WWC2 (11732394_at) / RFU HLA-DPB1 (11760878_x_at) / Fold change /veh HLA-DPB1 (11760878_x_at) / RFU SPINT1 (11716480_a_at) / Fold change /veh SPINT1 (11716480_a_at) / RFU GAP43 (11754022_s_at) / Fold change /veh GAP43 (11754022_s_at) / RFU A4GNT (11735810_at) / Fold change /veh A4GNT (11735810_at) / RFU PRB3 (11715151_x_at) / Fold change /veh PRB3 (11715151_x_at) / RFU TUBB4B (11761932_at) / Fold change /veh TUBB4B (11761932_at) / RFU CAPN14 (11732068_a_at) / Fold change /veh CAPN14 (11732068_a_at) / RFU TMCC2 (11721928_a_at) / Fold change /veh TMCC2 (11721928_a_at) / RFU IRGQ (11745062_a_at) / Fold change /veh IRGQ (11745062_a_at) / RFU FAM174B (11720279_a_at) / Fold change /veh FAM174B (11720279_a_at) / RFU TMPRSS4 (11748680_a_at) / Fold change /veh TMPRSS4 (11748680_a_at) / RFU FAM212B (11763350_a_at) / Fold change /veh FAM212B (11763350_a_at) / RFU PLEKHG5 (11743358_a_at) / Fold change /veh PLEKHG5 (11743358_a_at) / RFU ZSCAN30 (11745921_a_at) / Fold change /veh ZSCAN30 (11745921_a_at) / RFU CMKLR1 (11741424_a_at) / Fold change /veh CMKLR1 (11741424_a_at) / RFU LOC101060620 /// MAPK8IP1 (11723275_at) / Fold change /veh LOC101060620 /// MAPK8IP1 (11723275_at) / RFU SPTSSB (11747773_x_at) / Fold change /veh SPTSSB (11747773_x_at) / RFU PRSS12 (11739890_at) / Fold change /veh PRSS12 (11739890_at) / RFU BIN1 (11741810_x_at) / Fold change /veh BIN1 (11741810_x_at) / RFU WNT11 (11732464_a_at) / Fold change /veh WNT11 (11732464_a_at) / RFU C10orf10 (11716521_a_at) / Fold change /veh C10orf10 (11716521_a_at) / RFU C5orf56 (11738089_at) / Fold change /veh C5orf56 (11738089_at) / RFU CYB561 (11721691_x_at) / Fold change /veh CYB561 (11721691_x_at) / RFU ANKRD19P (11752326_a_at) / Fold change /veh ANKRD19P (11752326_a_at) / RFU OR2T12 /// OR2T33 /// OR2T8 (11738714_s_at) / Fold change /veh OR2T12 /// OR2T33 /// OR2T8 (11738714_s_at) / RFU VCAN (11748164_a_at) / Fold change /veh VCAN (11748164_a_at) / RFU JSRP1 (11732532_at) / Fold change /veh JSRP1 (11732532_at) / RFU KRTAP10-11 (11738290_x_at) / Fold change /veh KRTAP10-11 (11738290_x_at) / RFU MYO3A (11730013_a_at) / Fold change /veh MYO3A (11730013_a_at) / RFU EBF3 (11725865_a_at) / Fold change /veh EBF3 (11725865_a_at) / RFU CAMK2N1 (11719241_x_at) / Fold change /veh CAMK2N1 (11719241_x_at) / RFU C5orf56 (11738088_a_at) / Fold change /veh C5orf56 (11738088_a_at) / RFU OLFML3 (11715873_a_at) / Fold change /veh OLFML3 (11715873_a_at) / RFU LOC100653217 /// NTM (11731650_a_at) / Fold change /veh LOC100653217 /// NTM (11731650_a_at) / RFU MAPK11 (11762145_a_at) / Fold change /veh MAPK11 (11762145_a_at) / RFU FIZ1 (11724087_x_at) / Fold change /veh FIZ1 (11724087_x_at) / RFU OASL (11726364_x_at) / Fold change /veh OASL (11726364_x_at) / RFU SOX15 (11748057_x_at) / Fold change /veh SOX15 (11748057_x_at) / RFU CD79A (11719716_a_at) / Fold change /veh CD79A (11719716_a_at) / RFU HIST1H1D (11736915_at) / Fold change /veh HIST1H1D (11736915_at) / RFU CASKIN2 (11723855_a_at) / Fold change /veh CASKIN2 (11723855_a_at) / RFU LOC730098 (11760151_x_at) / Fold change /veh LOC730098 (11760151_x_at) / RFU OR4N2 (11742367_at) / Fold change /veh OR4N2 (11742367_at) / RFU PRRT2 (11749266_a_at) / Fold change /veh PRRT2 (11749266_a_at) / RFU SNX32 (11753110_a_at) / Fold change /veh SNX32 (11753110_a_at) / RFU CDHR5 (11726645_a_at) / Fold change /veh CDHR5 (11726645_a_at) / RFU RCAN1 (11760418_a_at) / Fold change /veh RCAN1 (11760418_a_at) / RFU FAM167A (11723789_a_at) / Fold change /veh FAM167A (11723789_a_at) / RFU FAM26E (11764081_at) / Fold change /veh FAM26E (11764081_at) / RFU ISYNA1 (11749810_s_at) / Fold change /veh ISYNA1 (11749810_s_at) / RFU ACY1 (11761880_at) / Fold change /veh ACY1 (11761880_at) / RFU 11764098_at / Fold change /veh 11764098_at / RFU SAMD14 (11745864_x_at) / Fold change /veh SAMD14 (11745864_x_at) / RFU NPB (11741838_a_at) / Fold change /veh NPB (11741838_a_at) / RFU TMPRSS6 (11731388_a_at) / Fold change /veh TMPRSS6 (11731388_a_at) / RFU KRTAP10-2 (11738614_at) / Fold change /veh KRTAP10-2 (11738614_at) / RFU ARHGAP8 /// PRR5-ARHGAP8 (11727945_x_at) / Fold change /veh ARHGAP8 /// PRR5-ARHGAP8 (11727945_x_at) / RFU KRTAP5-7 /// NADSYN1 (11734609_at) / Fold change /veh KRTAP5-7 /// NADSYN1 (11734609_at) / RFU RASL12 (11751679_a_at) / Fold change /veh RASL12 (11751679_a_at) / RFU CDKN2B (11736163_a_at) / Fold change /veh CDKN2B (11736163_a_at) / RFU PRF1 (11729649_at) / Fold change /veh PRF1 (11729649_at) / RFU, ZNF638 /// ZNF638-IT1 / Fold change vs veh, ZNF638 /// ZNF638-IT1 / RFU, PANK3 / Fold change vs veh, PANK3 / RFU, SH3YL1 / Fold change vs veh, SH3YL1 / RFU, ZEB2 / Fold change vs veh, ZEB2 / RFU, NRIP1 / Fold change vs veh, NRIP1 / RFU, PTTG1IP / Fold change vs veh, PTTG1IP / RFU, CAPN2 / Fold change vs veh, CAPN2 / RFU, MED14 / Fold change vs veh, MED14 / RFU, SNORA58 / Fold change vs veh, SNORA58 / RFU, C1orf63 / Fold change vs veh, C1orf63 / RFU, LRRFIP1 / Fold change vs veh, LRRFIP1 / RFU, NDUFAF7 / Fold change vs veh, NDUFAF7 / RFU, SLC12A2 / Fold change vs veh, SLC12A2 / RFU, IBTK / Fold change vs veh, IBTK / RFU, ESF1 / Fold change vs veh, ESF1 / Fold change vs veh, TMEM50B / RFU, TAOK1 / Fold change vs veh, TAOK1 / RFU, ACBD3 / Fold change vs veh, ACBD3 / RFU, TMA16 / Fold change vs veh, TMA16 / RFU, RWDD3 / Fold change vs veh, RWDD3 / RFU, BCAT1 / Fold change vs veh, BCAT1 / RFU, EDEM3 / Fold change vs veh, EDEM3 / RFU, TMEM33 / Fold change vs veh, TMEM33 / RFU, WDR75 / Fold change vs veh, WDR75 / RFU, AHCTF1 / Fold change vs veh, AHCTF1 / RFU, TFRC / Fold change vs veh, TFRC / RFU, ZDHHC17 / Fold change vs veh, ZDHHC17 / RFU, NOM1 / Fold change vs veh, NOM1 / RFU, ARL8B / Fold change vs veh, ARL8B / RFU, ZBTB11 / Fold change vs veh, ZBTB11 / RFU, TAMM41 / Fold change vs veh, TAMM41 / RFU, KIAA1704 /// LOC100996395 / Fold change vs veh, KIAA1704 /// LOC100996395 / RFU, ING1 / Fold change vs veh, ING1 / RFU, TRMT61B / Fold change vs veh, TRMT61B / RFU, FUBP3 / Fold change vs veh, FUBP3 / RFU, TP53 / Fold change vs veh, TP53 / RFU, TNKS2 / Fold change vs veh, TNKS2 / RFU, ZFP14 / Fold change vs veh, ZFP14 / RFU, ACTR2 / Fold change vs veh, ACTR2 / RFU, PPP3R1 / Fold change vs veh, PPP3R1 / RFU, PIK3R1 / Fold change vs veh, PIK3R1 / RFU, HNRNPA1 / Fold change vs veh, HNRNPA1 / RFU, RNF170 / Fold change vs veh, RNF170 / RFU, ZNF28 / Fold change vs veh, ZNF28 / RFU, RNGTT / Fold change vs veh, RNGTT / RFU, OGT / Fold change vs veh, OGT / RFU, BRD1 / Fold change vs veh, BRD1 / RFU, MARS / Fold change vs veh, MARS / RFU, ZNF655 / Fold change vs veh, ZNF655 / RFU, FAHD1 / Fold change vs veh, FAHD1 / RFU, BDP1 / Fold change vs veh, BDP1 / RFU, LRRCC1 / Fold change vs veh, LRRCC1 / RFU, ARID1A / Fold change vs veh, ARID1A / RFU, ZNF146 / Fold change vs veh, ZNF146 / RFU, ZNF330 / Fold change vs veh, ZNF330 / RFU, GPN3 / Fold change vs veh, GPN3 / RFU, C9orf123 / Fold change vs veh, C9orf123 / RFU, N4BP2L2 / Fold change vs veh, N4BP2L2 / RFU, ARFIP1 / Fold change vs veh, ARFIP1 / RFU, FAM179B / Fold change vs veh, FAM179B / RFU, BCL10 / Fold change vs veh, BCL10 / RFU, UHRF1BP1L / Fold change vs veh, UHRF1BP1L / RFU, BET1 / Fold change vs veh, BET1 / RFU, CNOT2 / Fold change vs veh, CNOT2 / RFU, ZNF268 / Fold change vs veh, ZNF268 / Fold change vs veh, ZNF507 / RFU, DGCR2 / Fold change vs veh, DGCR2 / RFU, WDSUB1 / Fold change vs veh, WDSUB1 / Fold change vs veh, HSP90B1 /// MIR3652 / RFU, ADSS / Fold change vs veh, ADSS / RFU, GK / Fold change vs veh, GK / RFU, ZNF148 / Fold change vs veh, ZNF148 / RFU, TAF9 / Fold change vs veh, TAF9 / RFU, SLC1A5 / Fold change vs veh, SLC1A5 / RFU, SLMO2 / Fold change vs veh, SLMO2 / RFU, ABCC4 / Fold change vs veh, ABCC4 / RFU, LOC101060439 /// RAP1B / Fold change vs veh, LOC101060439 /// RAP1B / RFU, RFX7 / Fold change vs veh, RFX7 / RFU, GTPBP10 / Fold change vs veh, GTPBP10 / RFU, CNEP1R1 / Fold change vs veh, CNEP1R1 / RFU, BIVM-ERCC5 /// ERCC5 / Fold change vs veh, BIVM-ERCC5 /// ERCC5 / RFU, ILF3 / Fold change vs veh, ILF3 / RFU 11762660_at / Fold change /veh 11762660_at / RFU VCAN (11757783_s_at) / Fold change /veh VCAN (11757783_s_at) / RFU DDX43 (11728927_at) / Fold change /veh DDX43 (11728927_at) / RFU KRT8 (11758188_x_at) / Fold change /veh KRT8 (11758188_x_at) / RFU NKD1 (11759106_at) / Fold change /veh NKD1 (11759106_at) / RFU SRD5A1 (11742802_a_at) / Fold change /veh SRD5A1 (11742802_a_at) / RFU TPSAB1 /// TPSB2 (11721975_s_at) / Fold change /veh TPSAB1 /// TPSB2 (11721975_s_at) / RFU GSTM3 (11746129_a_at) / Fold change /veh GSTM3 (11746129_a_at) / RFU IL23R (11737362_x_at) / Fold change /veh IL23R (11737362_x_at) / RFU TMEM51 (11727254_a_at) / Fold change /veh TMEM51 (11727254_a_at) / RFU PIWIL2 (11732686_x_at) / Fold change /veh PIWIL2 (11732686_x_at) / RFU ORM1 (11744905_x_at) / Fold change /veh ORM1 (11744905_x_at) / RFU CCDC152 (11743942_at) / Fold change /veh CCDC152 (11743942_at) / RFU ECM1 (11717891_a_at) / Fold change /veh ECM1 (11717891_a_at) / RFU IL23R (11748794_a_at) / Fold change /veh IL23R (11748794_a_at) / RFU TNFAIP8L3 (11732012_x_at) / Fold change /veh TNFAIP8L3 (11732012_x_at) / RFU MBOAT4 (11741988_at) / Fold change /veh MBOAT4 (11741988_at) / RFU 11764193_at / Fold change /veh 11764193_at / RFU TMEM53 (11763286_at) / Fold change /veh TMEM53 (11763286_at) / RFU MAGEB2 (11727129_at) / Fold change /veh MAGEB2 (11727129_at) / RFU TMEM200A (11744735_a_at) / Fold change /veh TMEM200A (11744735_a_at) / RFU CCDC152 (11751479_a_at) / Fold change /veh CCDC152 (11751479_a_at) / RFU FAM211A (11726209_a_at) / Fold change /veh FAM211A (11726209_a_at) / RFU RGS16 (11746705_a_at) / Fold change /veh RGS16 (11746705_a_at) / RFU VCAN (11755009_s_at) / Fold change /veh VCAN (11755009_s_at) / RFU RHOB (11743442_s_at) / Fold change /veh RHOB (11743442_s_at) / RFU RGS16 (11720943_a_at) / Fold change /veh RGS16 (11720943_a_at) / RFU RGS16 (11720944_at) / Fold change /veh RGS16 (11720944_at) / RFU, VPS4B / Fold change vs veh, VPS4B / RFU, CREB1 / Fold change vs veh, CREB1 / RFU, DNAJC13 / Fold change vs veh, DNAJC13 / RFU, GNAQ / Fold change vs veh, GNAQ / RFU, CDK5R1 / Fold change vs veh, CDK5R1 / RFU, ZRANB3 / Fold change vs veh, ZRANB3 / RFU, CUL4A / Fold change vs veh, CUL4A / RFU, CCNY / Fold change vs veh, CCNY / RFU, UFL1 / Fold change vs veh, UFL1 / RFU, COG3 / Fold change vs veh, COG3 / RFU, DIAPH2 / Fold change vs veh, DIAPH2 / RFU, SKA2 / Fold change vs veh, SKA2 / RFU, AFF3 / Fold change vs veh, AFF3 / RFU, LMF1 / Fold change vs veh, LMF1 / RFU, IPO11 / Fold change vs veh, IPO11 / RFU, DFFB / Fold change vs veh, DFFB / RFU, FOXP1 / Fold change vs veh, FOXP1 / RFU, CARD8 / Fold change vs veh, CARD8 / RFU, STRN3 / Fold change vs veh, STRN3 / RFU, ADK / Fold change vs veh, ADK / RFU, RASSF2 / Fold change vs veh, RASSF2 / RFU, WIPF1 / Fold change vs veh, WIPF1 / RFU, LARP1B / Fold change vs veh, LARP1B / RFU, RASA1 / Fold change vs veh, RASA1 / RFU, RB1 / Fold change vs veh, RB1 / RFU, PPFIA1 / Fold change vs veh, PPFIA1 / RFU, MAT2A / Fold change vs veh, MAT2A / RFU, CCT5 / Fold change vs veh, CCT5 / RFU, WDR92 / Fold change vs veh, WDR92 / RFU, CUX1 / Fold change vs veh, CUX1 / RFU, TTC7A / Fold change vs veh, TTC7A / RFU, TMEM135 / Fold change vs veh, TMEM135 / RFU, DEPTOR / Fold change vs veh, DEPTOR / RFU, CPM / Fold change vs veh, CPM / RFU, DNAJB6 / Fold change vs veh, DNAJB6 / RFU, CACNA2D3 / Fold change vs veh, CACNA2D3 / RFU, DTX4 / Fold change vs veh, DTX4 / RFU, TFCP2 / Fold change vs veh, TFCP2 / RFU, GMCL1 /// GMCL1P1 / Fold change vs veh, GMCL1 /// GMCL1P1 / RFU, AEBP2 / Fold change vs veh, AEBP2 / RFU, SNHG1 /// SNORD22 /// SNORD25 /// SNORD26 /// SNORD27 /// SNORD28 /// SNORD29 /// SNORD31 / Fold change vs veh, SNHG1 /// SNORD22 /// SNORD25 /// SNORD26 /// SNORD27 /// SNORD28 /// SNORD29 /// SNORD31 / Fold change (Aza/veh), C12orf56 (ProbeSet 11735607_a_at) / Fold change (ACY-1035/veh), C12orf56 (ProbeSet 11735607_a_at) / Fold change (Aza/veh), FGFR1OP (ProbeSet 11751329_s_at) / Fold change (ACY-1035/veh), FGFR1OP (ProbeSet 11751329_s_at) / Fold change (Aza/veh), VPS36 (ProbeSet 11739960_a_at) / Fold change (ACY-1035/veh), VPS36 (ProbeSet 11739960_a_at) / RFU SYPL1 (11715823_x_at) / Fold change /veh SYPL1 (11715823_x_at) / RFU IGFBP7 (11715501_s_at) / Fold change /veh IGFBP7 (11715501_s_at) / RFU REEP3 (11722064_at) / Fold change /veh REEP3 (11722064_at) / RFU IGLL1 (11728026_x_at) / Fold change /veh IGLL1 (11728026_x_at): dose or concentration left out as unconfirmed
Details: MV-4-11 cells, 48 hours

Nc1ncn([C@@H]2O[C@H](CO)[C@@H](O)[C@H]2O)c(=O)n1 [azacitidine]
Fold change /veh TMEM51 (11727254_a_at): 1.21
